From ChEMBL document CHEMBL5537136 (J Med Chem, 2024)
Calls of active or inactive are those of the source. The rule behind the calls is not given here.

Experiments:
[1] = biological target: T1, Protein mono-ADP-ribosyltransferase PARP11 (Homo sapiens, UniProt Q9NR21); experiment: Inhibition of PARP11 (unknown origin) measured after 1 hr incubation by microplate reader assay
T1 sequence (Q9NR21 whole entry): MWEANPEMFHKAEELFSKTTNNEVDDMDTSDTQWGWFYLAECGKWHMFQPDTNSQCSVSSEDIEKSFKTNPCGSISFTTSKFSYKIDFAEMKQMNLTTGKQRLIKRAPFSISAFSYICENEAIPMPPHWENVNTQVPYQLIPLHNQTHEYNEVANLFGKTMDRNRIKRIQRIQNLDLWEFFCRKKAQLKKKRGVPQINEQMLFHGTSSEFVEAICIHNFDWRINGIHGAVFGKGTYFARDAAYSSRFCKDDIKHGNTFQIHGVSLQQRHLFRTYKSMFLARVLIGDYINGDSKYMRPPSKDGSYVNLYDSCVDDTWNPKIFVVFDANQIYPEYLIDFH

[2] = biological target: Protein mono-ADP-ribosyltransferase PARP14 (Homo sapiens, UniProt Q460N5); experiment: Inhibition of PARP14 (unknown origin) measured after 1 hr incubation by microplate reader assay
Protein mono-ADP-ribosyltransferase PARP14, sequence (Q460N5 whole entry): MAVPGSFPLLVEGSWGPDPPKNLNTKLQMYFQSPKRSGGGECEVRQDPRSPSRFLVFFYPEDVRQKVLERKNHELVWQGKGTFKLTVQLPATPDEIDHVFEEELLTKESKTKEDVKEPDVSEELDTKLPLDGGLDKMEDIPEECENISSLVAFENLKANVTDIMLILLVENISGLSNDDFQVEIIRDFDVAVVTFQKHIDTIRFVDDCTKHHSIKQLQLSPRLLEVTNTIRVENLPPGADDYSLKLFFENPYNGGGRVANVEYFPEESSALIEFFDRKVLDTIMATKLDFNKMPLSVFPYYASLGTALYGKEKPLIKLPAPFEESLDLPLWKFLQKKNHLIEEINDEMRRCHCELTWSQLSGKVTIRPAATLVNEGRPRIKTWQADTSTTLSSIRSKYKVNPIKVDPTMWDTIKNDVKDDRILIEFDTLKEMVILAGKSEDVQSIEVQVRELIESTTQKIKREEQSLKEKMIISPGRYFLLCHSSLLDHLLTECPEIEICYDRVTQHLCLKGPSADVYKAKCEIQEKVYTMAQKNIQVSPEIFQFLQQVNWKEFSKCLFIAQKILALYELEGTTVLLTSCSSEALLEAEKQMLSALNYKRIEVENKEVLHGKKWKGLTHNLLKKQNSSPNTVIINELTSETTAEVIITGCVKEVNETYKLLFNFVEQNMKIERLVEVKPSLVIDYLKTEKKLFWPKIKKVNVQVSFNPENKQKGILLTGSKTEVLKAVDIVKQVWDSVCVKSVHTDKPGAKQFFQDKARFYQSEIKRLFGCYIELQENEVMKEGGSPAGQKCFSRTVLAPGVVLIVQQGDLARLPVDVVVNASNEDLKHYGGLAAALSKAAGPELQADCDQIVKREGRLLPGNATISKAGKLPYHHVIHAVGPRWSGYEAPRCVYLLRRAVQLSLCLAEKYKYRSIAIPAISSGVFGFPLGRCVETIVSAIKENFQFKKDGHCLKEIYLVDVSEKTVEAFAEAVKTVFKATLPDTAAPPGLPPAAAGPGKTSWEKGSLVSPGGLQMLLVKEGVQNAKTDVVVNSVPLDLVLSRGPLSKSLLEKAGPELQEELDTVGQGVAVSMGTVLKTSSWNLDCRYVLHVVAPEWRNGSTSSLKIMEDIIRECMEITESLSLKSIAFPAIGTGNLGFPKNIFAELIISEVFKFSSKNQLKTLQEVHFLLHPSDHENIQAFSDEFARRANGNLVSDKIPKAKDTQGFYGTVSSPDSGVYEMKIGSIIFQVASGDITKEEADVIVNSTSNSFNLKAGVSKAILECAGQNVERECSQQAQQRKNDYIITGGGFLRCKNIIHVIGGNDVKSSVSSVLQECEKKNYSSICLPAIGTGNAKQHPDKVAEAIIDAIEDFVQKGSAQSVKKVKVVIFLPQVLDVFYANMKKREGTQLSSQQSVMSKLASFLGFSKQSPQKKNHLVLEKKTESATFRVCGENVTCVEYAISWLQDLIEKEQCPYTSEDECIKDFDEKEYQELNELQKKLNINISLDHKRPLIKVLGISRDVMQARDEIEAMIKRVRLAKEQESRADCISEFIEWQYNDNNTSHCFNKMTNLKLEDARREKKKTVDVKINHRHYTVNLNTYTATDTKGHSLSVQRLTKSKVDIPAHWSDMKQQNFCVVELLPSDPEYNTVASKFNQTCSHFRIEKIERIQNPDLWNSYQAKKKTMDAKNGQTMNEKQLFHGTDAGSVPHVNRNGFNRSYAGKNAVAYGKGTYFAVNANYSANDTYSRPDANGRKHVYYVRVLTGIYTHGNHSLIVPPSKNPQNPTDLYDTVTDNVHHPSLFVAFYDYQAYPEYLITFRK

[3] = Antiproliferative activity against mouse AML12 cells measured after 6 days incubation by MTT assay; type: toxicity, cell-based
[4] = Permeability across apical to basolateral side in human Caco-2 cells; type: ADME, cell-based
[5] = biological target: Cytochrome P450 2C9 (Homo sapiens, UniProt P11712); experiment: Inhibition of CYP2C9 (unknown origin); type: ADME
Cytochrome P450 2C9, sequence (P11712 whole entry): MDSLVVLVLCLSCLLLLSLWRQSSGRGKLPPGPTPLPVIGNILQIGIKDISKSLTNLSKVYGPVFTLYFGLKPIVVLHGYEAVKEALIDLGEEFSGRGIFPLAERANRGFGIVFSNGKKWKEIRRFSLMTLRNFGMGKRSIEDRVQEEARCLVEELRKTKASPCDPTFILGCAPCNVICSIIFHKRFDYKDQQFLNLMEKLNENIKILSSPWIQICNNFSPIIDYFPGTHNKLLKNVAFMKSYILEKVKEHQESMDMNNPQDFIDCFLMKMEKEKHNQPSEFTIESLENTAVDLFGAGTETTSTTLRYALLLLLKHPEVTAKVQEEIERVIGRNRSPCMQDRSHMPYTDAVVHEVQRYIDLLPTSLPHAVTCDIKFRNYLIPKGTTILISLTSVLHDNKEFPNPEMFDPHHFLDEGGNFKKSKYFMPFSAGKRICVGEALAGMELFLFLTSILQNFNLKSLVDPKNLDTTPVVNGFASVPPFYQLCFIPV

[6] = biological target: CYP3A4/5 (Homo sapiens, UniProt P08684+P20815); experiment: Inhibition of CYP3A4/5 (unknown origin); type: ADME, protein assay
[7] = Tmax in ICR mouse at 1 mg/kg, iv measured upto 24 hrs by LC-MS/MS analysis; type: ADME, organism-based; settings: in vivo
[8] = Clearance in ICR mouse at 1 mg/kg, iv measured upto 24 hrs by LC-MS/MS analysis; type: ADME, organism-based; settings: in vivo
[9] = MRT (0 to infinity) in ICR mouse at 1 mg/kg, iv measured upto 24 hrs by LC-MS/MS analysis; type: ADME, organism-based; settings: in vivo
[10] = Half life in ICR mouse at 10 mg/kg, IG measured upto 24 hrs by LC-MS/MS analysis; type: ADME, organism-based; settings: in vivo, po
[11] = Cmax in ICR mouse at 10 mg/kg, IG measured upto 24 hrs by LC-MS/MS analysis; type: ADME, organism-based; settings: in vivo, po
[12] = Oral bioavailability in ICR mouse at 10 mg/kg measured upto 24 hrs by LC-MS/MS analysis; type: ADME, organism-based; settings: in vivo
[13] = Acute toxicity in ICR mouse assessed as change in body weight at 500 mg/kg, po measured after 7 days; type: organism-based; settings: in vivo, 168 h, time 7 day
[14] = system: CT26; experiment: Antitumor activity in immunocompetent mouse CT26 cell bearing mouse model assessed as tumor growth inhibition at 6.25 mg/kg, IG treated twice a day measured after 14 days relative to control; type: functional; settings: CT26, po, 336 h, time 14 day, read-out: TGI
[15] = system: CT26; experiment: Antitumor activity in immunocompetent mouse CT26 cell bearing mouse model assessed as tumor growth inhibition at 12.5 mg/kg, IG treated twice a day measured after 14 days relative to control; type: functional; settings: CT26, po, 336 h, time 14 day, read-out: TGI
[16] = Toxicity in Balb/c mouse bearing mouse CT26 cells assessed as morphological changes in heart at 6.25 to 25 mg/kg, IG measured after 14 days by hematoxylin and eosin staining based assay; type: organism-based; settings: in vivo, po, 336 h, dose 6.25-25 mg/kg, time 14 day
[17] = Toxicity in Balb/c mouse bearing mouse CT26 cells assessed as morphological changes in kidney at 6.25 to 25 mg/kg, IG measured after 14 days by hematoxylin and eosin staining based assay; type: organism-based; settings: in vivo, po, 336 h, dose 6.25-25 mg/kg, time 14 day
[18] = Toxicity in Balb/c mouse bearing mouse CT26 cells assessed as body weight change at 6.25 to 25 mg/kg, IG measured after 14 days; type: organism-based; settings: in vivo, po, 336 h, dose 6.25-25 mg/kg, time 14 day
[19] = system: CT26; experiment: Antitumor activity in immunocompetent mouse CT26 cell bearing Balb/c mouse model assessed as reduction in Ki-67 protein expression level in tumor tissue at 6.25 to 25 mg/kg, IG treated twice a day measured after 14 days; type: functional, organism-based; settings: dose lower 6.25 mg/kg, dose upper […], time 14.0 day
[20] = system: CT26; experiment: Antitumor activity in immunocompetent mouse CT26 cell bearing Balb/c mouse model assessed as induction of IFN-beta release in tumor tissue at 6.25 to 25 mg/kg, IG treated twice a day measured after 14 days by immunohistochemistry staining based assay; type: functional, organism-based; settings: dose lower 6.25 mg/kg, dose upper […], time 14.0 day
[21] = system: CT26; experiment: Antitumor activity against mouse CT26 cells implanted in Balb/c mouse assessed as increase in infiltration of CD3 positive CD8 positive T lymphocytes in tumors at 25 mg/kg, IG measured after 14 days by flow cytometry; type: functional, organism-based; settings: time 14.0 day
[22] = system: CT26; experiment: cells; settings: Mus musculus, CT26, 144 h
[23] = system: CT26; experiment: cells; settings: Mus musculus, CT26, 144 h; remark: listed apart in the source

For C[C@@H](C(=O)N1CCN(c2ncc(C(F)(F)F)cn2)CC1)n1cc2cccc(C(N)=O)c2n1, the IC50 [1] was greater than 5 µM, the IC50 [2] was greater than 1.3 µM and the IC50 at 6 days [3] was greater than 50 µM. For the same compound, the Papp A→B [4] was 25.7 ×10⁻⁶ cm/s, the IC50 [5] was greater than 30 µM and the IC50 [6] was greater than 30 µM. The Tmax [7] was 4.8 min, the clearance [8] was 9.62 mL/min/kg and the MRT inf [9] was 1.52 h. For the same compound, the half-life [10] was 1.76 h, the Cmax [11] was 7350 ng/mL and the bioavailability [12] was 94.6%. The Activity [13] was “Non-Toxic”, the inhibition in vivo at 6.25 mg/kg [14] was 42% and the inhibition in vivo at 12.5 mg/kg [15] was 53%. For the same compound, the Activity [16] was “Non-Toxic”, the Activity [17] was “Non-Toxic” and the Activity [18] was “Non-Toxic”. For the same compound, the Activity [19] was “Active”, the Activity [20] was “Active” and the Activity [21] was “Active”. The IC50 [22] was 16.2 µM and the IC50 [23] was 36.1 µM.
